# In patent publication US11472841B2, “Immunogenic composition” (MENICON CO., LTD., priority 2018, dated 2022):
# Legend:
# female BALB/c mice [1] = assay: Example 4: tissue specimen of back skin including administration site; assay type: in vivo; details: 7 days after the administration, intradermal
# Method: (§1) Five-week-old female BALB/c mice (supplied by Charles River) were divided into administration groups of 2 mice and an untreated group of 3 mice. 100 μL of each test sample described in Table 5 was intradermally administered to mice of corresponding groups on days 0, 7, and 14 of the administration. […] The collected blood was incubated at 25° C. for 30 minutes and then preserved overnight at 4° C. to assemble a blood clot, centrifugation was performed at 1,000 to 1,200 × g at 4° C. for 20 minutes, and a supernatant was collected. The blood IgG value of the collected serum was measured using an IgG ELISA kit. The serum was diluted 200,000 times with a dilution buffer attached to the kit. In addition, the back skin including the administration site of the third test sample was collected after collecting blood to prepare a tissue specimen.
# The method for preparing the above-described test sample is as follows. […]
# female BALB/c mice [2] = assay: Example 4: blood IgG value (IgG ELISA kit) after three intradermal administrations; assay type: in vivo; details: in combination with any antigen protein (albumin, casein, lysozyme, papain); day 21
# Method: as §1
# The method for preparing the above-described test sample is as follows. That is, an antigen solution was prepared by dissolving an antigen protein in water, and the antigen solution and a 1.5 w/v % peptide composition (peptide compositions A to D described in Table 1) or PuraMatrix™ (which is manufactured by Corning Japan Ltd. and is a self-assembling peptide composition containing 1.0 w/v % of Ac-[…]-CONH2 (SEQ ID No: 18)) were mixed with each other so that the self-assembling peptide concentration became 0.75 w/v % and the antigen protein concentration became 0.25 mg/mL (=0.025 w/v %) to prepare a test sample. In addition, a sample obtained by mixing the above-described antigen solution with physiological saline so that the antigen protein concentration became 0.25 mg/mL was used as a control sample.
# [3] = antigen protein; cited from earlier work
Molecule,remaining of test sample inside the skin (female BALB/c mice [1]),immunogenicity (blood IgG) (female BALB/c mice [2]),Isoelectric point [3]
SEQ ID No: 16 (RLDLRLNLRLDLR; self-assembling peptide),,enhanced,
"OVA: Ovalbumin antigen, Wako Pure Chemical Industries (protein, UniProt P01012 2-386, looked up) Ovalbumin: GSIGAASMEFCFDVFKELKVHHANENIFYCPIAIMSALAMVYLGAKDSTRTQINKVVRFDKLPGFGDSIEAQCGTSVNVHSSLRDILNQITKPNDVYSFSLASRLYAEERYPILPEYLQCVKELYRGGLEPINFQTAADQARELINSWVESQTNGIIRNVLQPSSVDSQTAMVLVNAIVFKGLWEKAFKDEDTQAMPFRVTEQESKPVQMMYQIGLFRVASMASEKMKILELPFASGTMSMLVLLPDEVSGLEQLESIINFEKLTEWTSSNVMEERKIKVYLPRMKMEEKYNLTSVLMAMGITDVFSSSANLSGISSAESLKISQAVHAAHAEINEAGREVVGSAEAGVDAASVSEEFRADHPFLFCIKHIATNAVLFFGRCVSP",,,"OVA: Ovalbumin (isoelectric point: 4.5, manufactured by Wako Pure Chemical Industries, Ltd., Cat. No."

# Second part, led by results:
remaining of test sample inside the skin (female BALB/c mice [1]),Molecule,immunogenicity (blood IgG) (female BALB/c mice [2]),Isoelectric point [3]
the test sample remained inside the skin,Ac-RLDLRLALRLDLR-NH2 [SEQ ID No: 1],enhanced,
the test sample remained inside the skin,Ac-RLDLRLSLRLDLR-NH2 [SEQ ID No: 15],enhanced,
